In general, MIC refers to the smallest concentration in the dilution series that meets the test's criterion for growth inhibition.

Values after ≈ are worked out from the molar mass of the structure shown. Read-outs that look alike come from different tables or passages of the source.

The subject of experiment [1] is methicillin-sensitive Staphylococcus aureus. Briefly: MIC by broth micro-dilution (CLSI), methicillin-sensitive S. aureus. Type of experiment: cell-based. To be noted: MSSA S. aureus ATCC29213. A general note: In broth dilution the organism is exposed to a series of concentrations in liquid medium.
Experiment [2] concerns carbapenem sensitive Escherichia coli. Briefly: MIC by broth micro-dilution (CLSI), carbapenem sensitive E. coli. It counts as cell-based.
Experiment [3] deals with carbapenemase producing K. pneumoniae. Briefly: MIC by broth micro-dilution (CLSI), carbapenemase producing K. pneumoniae. It counts as cell-based, Klebsiella pneumoniae.
The subject of experiment [4] is carbapenem sensitive Pseudomonas aeruginosa. Briefly: MIC by broth micro-dilution (CLSI), carbapenem sensitive P. aeruginosa. It counts as cell-based.
Where [5] appears, read: KPC-2 K. pneumoniae ATCC BAA-1705.
The mark [6] stands for this setting: Meropenem susceptible P. aeruginosa ATCC27853.
The mark [7] stands for this setting: Staphylococcus aureus, ATCC 29213 / MSSA, read-out: MIC.
Setting [8] is: Escherichia coli, ATCC25922, ESBL −ve E. coli ATCC25922, read-out: MIC.
Where [9] appears, read: Klebsiella pneumoniae, ATCCBAA1705, KPC-2 K. pneumoniae ATCC BAA-1705, read-out: MIC.
[10] abbreviates: Pseudomonas aeruginosa, ATCC27853, Meropenem susceptible P. aeruginosa ATCC27853, read-out: MIC.

On to `C[C@@H](NC(=O)Cn1cnnn1)[C@H]1C(=O)N2C(C(=O)O)=C(S[C@@H]3CN[C@H](C(=O)N4CCCC45CCCNC5)C3)[C@H](C)[C@H]12` (single isomer, unassigned) [Example 504], for which the minimum inhibitory concentration (MIC) in experiment [1] came to 2 µg/mL (≈ 3.4 µM); in experiment [2] (ESBL −ve E. coli ATCC25922), 0.5 µg/mL (≈ 0.851 µM); in experiment [3] (setting [5]), 4 µg/mL (≈ 6.81 µM); in experiment [4] (setting [6]), 32 µg/mL (≈ 54.4 µM).

In the case of `CNCC(=O)N[C@H](C)[C@H]1C(=O)N2C(C(=O)O)=C(S[C@@H]3CN[C@H](C(=O)N4CCC5CNCCC54)C3)[C@H](C)[C@H]12` (single isomer, unassigned) [Example 490], the MIC was 32 µg/mL (≈ 59.8 µM) in experiment [1] (setting [7]), 2 µg/mL (≈ 3.74 µM) in experiment [2] (setting [8]), 2 µg/mL (≈ 3.74 µM) in experiment [3] (setting [9]) and 32 µg/mL (≈ 59.8 µM) in experiment [4] (setting [10]).

Take `C[C@@H](NC(=O)Cn1cnnn1)[C@H]1C(=O)N2C(C(=O)[O-])=C(S[C@@H]3CN[C@H](C(=O)N4CCC5C[N+](C)(C)CCC54)C3)[C@H](C)[C@H]12` (stereo partly drawn) [Example 599]: the minimum inhibitory concentration (MIC) was determined as 4 µg/mL (≈ 6.65 µM) in experiment [1], 1 µg/mL (≈ 1.66 µM) in experiment [2] (ESBL −ve E. coli ATCC25922), 2 µg/mL (≈ 3.32 µM) in experiment [3] (setting [5]) and 4 µg/mL (≈ 6.65 µM) in experiment [4] (setting [6]).

Regarding `C[C@@H](NC(=O)C(F)F)[C@H]1C(=O)N2C(C(=O)O)=C(SC3CN(C4=NCCS4)C3)[C@H](C)[C@H]12` [Example 263], the MIC in experiment [1] (setting [7]) is 0.25 µg/mL (≈ 0.543 µM); in experiment [2] (setting [8]), 0.25 µg/mL (≈ 0.543 µM); in experiment [3] (setting [9]) it was 2 µg/mL (≈ 4.34 µM); in experiment [4] (setting [10]), 128 µg/mL (≈ 278 µM).

With `C[C@@H](NC(=O)Cn1cnnn1)[C@H]1C(=O)N2C(C(=O)O)=C(S[C@@H]3CN[C@H](C(=O)N4C[C@H](CO)[C@@H](NC(=N)N)C4)C3)[C@H](C)[C@H]12` [Example 592, (4R,5S,6R)-6-((R)-1-(2-(1H-tetrazol-1-yl)acetamido)ethyl)-3-((3S,5S)-5-((3R,4S)-3-guanidino-4-diazabicyclo[3.2.0]heptane-3-(hydroxymethyl)pyrrolidine-1-carbonyl)pyrrolidin-3-ylthio)-4-methyl-7-oxo-1-azabicyclo[3.2.0]hept-2-ene-2-carboxylic acid], the MIC worked out at 2 µg/mL (≈ 3.3 µM) in experiment [1] (setting [7]), 0.125 µg/mL (≈ 0.206 µM) in experiment [2] (setting [8]), 0.5 µg/mL (≈ 0.826 µM) in experiment [3] (setting [9]) and 0.5 µg/mL (≈ 0.826 µM) in experiment [4] (setting [10]).

In the case of `C[C@@H](NC(=O)Cn1cnnn1)[C@H]1C(=O)N2C(C(=O)O)=C(S[C@@H]3CN[C@H](C(=O)N4CCC(CN)(CO)CC4)C3)[C@H](C)[C@H]12` [Example 463, (4R,5S,6R)-6-((R)-1-(2-(1H-tetrazol-1-yl)acetamido)ethyl)-3-((3S,5S)-5-(4-(aminomethyl)-4-(hydroxymethyl)piperidine-1-carbonyl)pyrrolidin-3-ylthio)-4-methyl-7-oxo-1-azabicyclo[3.2.0]hept-2-ene-2-carboxylic acid], the MIC in experiment [1] (setting [7]) came out at 4 µg/mL (≈ 6.76 µM); in experiment [2] (setting [8]), 0.5 µg/mL (≈ 0.845 µM); in experiment [3] (setting [9]), 1 µg/mL (≈ 1.69 µM); in experiment [4] (setting [10]), 2 µg/mL (≈ 3.38 µM).

As to `C[C@@H](NC(=O)Cn1cnnn1)[C@H]1C(=O)N2C(C(=O)O)=C(S[C@@H]3CN[C@H](C(=O)N4CCN([C@H]5CCNC5)CC4)C3)[C@H](C)[C@H]12` [Example 406, (4R,5S,6R)-6-((R)-1-(2-(1H-tetrazol-1-yl)acetamido)ethyl)-4-methyl-7-oxo-3-((3S,5S)-5-(4-((S)-pyrrolidin-3-yl]piperazine-1-carbonyl]pyrrolidin-3-ylthio)-1-azabicyclo[3.2.0]hept-2-ene-2-carboxylic acid], the MIC in experiment [1] (setting [7]) is 4 µg/mL (≈ 6.64 µM); in experiment [2] (setting [8]) it was 0.25 µg/mL (≈ 0.415 µM); in experiment [3] (setting [9]), 2 µg/mL (≈ 3.32 µM); in experiment [4] (setting [10]), 16 µg/mL (≈ 26.5 µM).

Turning to `C[C@@H](NC(=O)Cn1cnnn1)[C@H]1C(=O)N2C(C(=O)O)=C(S[C@@H]3CN[C@H](C(=O)N4C[C@@H](O)[C@H](O)C4)C3)[C@H](C)[C@H]12` [Example 396, (4R,5S,6R)-6-((R)-1-(2-(1H-tetrazol-1-yl)acetamido)ethyl)-3-((3S,5S)-5-((3R,4R)-3,4-dihydroxypyrrolidine-1-carbonyl)pyrrolidin-3-ylthio)-methyl-7-oxo-1-azabicyclo[3.2.0]hept-2-ene-2-carboxylic acid], the minimum inhibitory concentration (MIC) in experiment [1] (setting [7]) turned out to be 4 µg/mL (≈ 7.26 µM); in experiment [2] (setting [8]), 0.125 µg/mL (≈ 0.227 µM); in experiment [3] (setting [9]) it was 1 µg/mL (≈ 1.82 µM); in experiment [4] (setting [10]), 4 µg/mL (≈ 7.26 µM).

On to `C[C@@H](NC(=O)C(F)F)[C@H]1C(=O)N2C(C(=O)O)=C(S[C@@H]3CN[C@H](CNS(=O)(=O)N4CC[C@H](N)C4)C3)[C@H](C)[C@H]12` [Example 237], for which the MIC in experiment [1] (setting [7]) came to 1 µg/mL (≈ 1.76 µM); in experiment [2] (setting [8]), 2 µg/mL (≈ 3.53 µM); in experiment [3] (setting [9]), 4 µg/mL (≈ 7.06 µM); in experiment [4] (setting [10]), 128 µg/mL (≈ 226 µM).

`C[C@@H](NC(=O)Cn1cnnn1)[C@H]1C(=O)N2C(C(=O)O)=C(S[C@@H]3CN[C@H](C(=O)N4CC(N)C(F)C4)C3)[C@H](C)[C@H]12` (single isomer, unassigned) [Example 478]: the MIC was 8 µg/mL (≈ 14.5 µM) in experiment [1] (setting [7]), 0.125 µg/mL (≈ 0.227 µM) in experiment [2] (setting [8]), 1 µg/mL (≈ 1.81 µM) in experiment [3] (setting [9]) and 8 µg/mL (≈ 14.5 µM) in experiment [4] (setting [10]).

As to `C[C@@H](NC(=O)Cn1cnnn1)[C@H]1C(=O)N2C(C(=O)O)=C(S[C@@H]3CN[C@H](C(=O)N4CC[C@@H](N)[C@H]4CO)C3)[C@H](C)[C@H]12` [Example 523, (4R,5S,6R)-6-((R)-1-(2-(1H-tetrazol-1-yl)acetamido)ethyl)-3-((3S,5S)-5-((2S,3R)-3-amino-2-(hydroxymethyl)pyrrolidine-1-carbonyl)pyrrolidin-3-ylthio)-4-methyl-7-oxo-1-azabicyclo[3.2.0]hept-2-ene-2-carboxylic acid], the minimum inhibitory concentration (MIC) worked out at 2 µg/mL (≈ 3.55 µM) in experiment [1], 0.125 µg/mL (≈ 0.222 µM) in experiment [2] (ESBL −ve E. coli ATCC25922), 1 µg/mL (≈ 1.77 µM) in experiment [3] (setting [5]) and 1 µg/mL (≈ 1.77 µM) in experiment [4] (setting [6]).

With `C[C@@H](NS(=O)(=O)Cn1cnnn1)[C@H]1C(=O)N2C(C(=O)O)=C(S[C@@H]3CN[C@H](C(=O)N(C)C)C3)[C@H](C)[C@H]12` [Example 379, (4R,5S,6S)-6-((R)-1-((1H-tetrazol-1-yl)methylsulfonamido)ethyl)-3-((3S,5S)-5-(dimethylcarbamoyl)pyrrolidin-3-ylthio)-4-methyl-7-oxo-1-azabicyclo[3.2.0]hept-2-ene-2-carboxcylic acid], the MIC is 16 µg/mL (≈ 30.3 µM) in experiment [1] (setting [7]), 0.5 µg/mL (≈ 0.946 µM) in experiment [2] (setting [8]), 16 µg/mL (≈ 30.3 µM) in experiment [3] (setting [5]) and above 128 µg/mL in experiment [4] (setting [10]).

Turning to `C[C@@H](NC(=O)Cn1cnnn1)[C@H]1C(=O)N2C(C(=O)O)=C(S[C@@H]3CN[C@H](C(=O)N4CCC5CN(C(=N)N)CCC54)C3)[C@H](C)[C@H]12` (single isomer, unassigned) [Example 559], the MIC in experiment [1] (setting [7]) came to 1 µg/mL (≈ 1.62 µM); in experiment [2] (setting [8]) it was 0.25 µg/mL (≈ 0.406 µM); in experiment [3] (setting [9]), 1 µg/mL (≈ 1.62 µM); in experiment [4] (setting [6]), 4 µg/mL (≈ 6.5 µM).

Take `C[C@@H](NC(=O)Cn1cnnn1)[C@H]1C(=O)N2C(C(=O)O)=C(S[C@@H]3CN[C@H](C(=O)N4CCC5CNCC5(C(=O)O)C4)C3)[C@H](C)[C@H]12` (stereo partly drawn) [Example 562, 5-((2S,4S)-4-((4R,5S,6R)-6-((R)-1-(2-(1H-tetrazol-1-yl)acetamido)ethyl)-2-carboxy-4-methyl-7-oxo-1-azabicyclo[3.2.0]hept-2-en-3-yl-thio)pyrrolidine-2-carbonyl)octahydro-1H-pyrrolo[3,4-c]pyridine-3a-carboxylic acid]: the MIC in experiment [1] (setting [7]) was determined as 16 µg/mL (≈ 25.9 µM); in experiment [2] (setting [8]), 0.5 µg/mL (≈ 0.809 µM); in experiment [3] (setting [9]), 2 µg/mL (≈ 3.24 µM); in experiment [4] (setting [10]), 2 µg/mL (≈ 3.24 µM).

For `C[C@@H](NC(=O)Cn1cnnn1)[C@H]1C(=O)N2C(C(=O)O)=C(S[C@@H]3CN[C@H](C(=O)N4C[C@@H](O)[C@H](NC(=N)N)C4)C3)[C@H](C)[C@H]12` [Example 544, (4R,5S,6R)-6-((R)-1-(2-(1H-tetrazol-1-yl)acetamido)ethyl)-3-((3S,5S)-5-((3R,4R)-3-guanidino-4-hydroxypyrrolidine-1-carbonyl)pyrrolidin-3-ylthio)-4-methyl-7-oxo-1-azabicyclo[3.2.0]hept-2-ene-2-carboxylic acid], the MIC in experiment [1] (setting [7]) is 1 µg/mL (≈ 1.69 µM); in experiment [2] (setting [8]) it was 0.25 µg/mL (≈ 0.423 µM); in experiment [3] (setting [9]) it was 0.5 µg/mL (≈ 0.845 µM); in experiment [4] (setting [10]), 1 µg/mL (≈ 1.69 µM).

Consider `C[C@@H](NS(=O)(=O)Cn1ncnn1)[C@H]1C(=O)N2C(C(=O)O)=C(S[C@@H]3CN[C@H](C(=O)N4CC[C@@H](N)C4)C3)[C@H](C)[C@H]12` [Example 382, (4R,5S,6S)-6-((R)-1-((2H-tetrazol-2-yl)methylsulfonamido)ethyl)-3-((3S,5S)-5-((R)-3-aminopyrroldine-1-carbonyl)pyrrolidin-3-ylthio)-4-methyl-7-oxo-1-azabicyclo[3.2.0]hept-2-ene-2-carboxylic acid], for which the minimal inhibitory concentration (MIC) in experiment [1] (setting [7]) is 16 µg/mL (≈ 28.1 µM); in experiment [2] (setting [8]), 1 µg/mL (≈ 1.76 µM); in experiment [3] (setting [9]) it was 4 µg/mL (≈ 7.02 µM); in experiment [4] (setting [10]) it was 128 µg/mL (≈ 225 µM).

For the compound `C[C@@H](NC(=O)Cn1cnnn1)[C@H]1C(=O)N2C(C(=O)O)=C(S[C@@H]3CN[C@H](C(=O)N4CC(N)C(N)C4)C3)[C@H](C)[C@H]12` (stereo partly drawn) [Example 413, (4R,5S,6R)-6-((R)-1-(2-(1H-tetrazol-1-yl)acetamido)ethyl)-3-((3S,5S)-5-(3,4-diaminopyrrolidine-1-carbonyl)pyrrolidin-3-ylthio)-4-methyl-7-oxo-1-azabicyclo[3.2.0]hept-2-ene-2-carboxylic acid], the minimal inhibitory concentration (MIC) came out at 2 µg/mL (≈ 3.65 µM) in experiment [1] (setting [7]), 0.25 µg/mL (≈ 0.456 µM) in experiment [2] (setting [8]), 2 µg/mL (≈ 3.65 µM) in experiment [3] (setting [9]) and 2 µg/mL (≈ 3.65 µM) in experiment [4] (setting [10]).

On to `CNCC(=O)N[C@H](C)[C@H]1C(=O)N2C(C(=O)O)=C(S[C@@H]3CN[C@H](CNC(=O)[C@@H]4C[C@H](F)CN4)C3)[C@H](C)[C@H]12` [Example 282], for which the minimal inhibitory concentration (MIC) was determined as 32 µg/mL (≈ 60.8 µM) in experiment [1] (setting [7]), 1 µg/mL (≈ 1.9 µM) in experiment [2] (setting [8]), 2 µg/mL (≈ 3.8 µM) in experiment [3] (setting [9]) and 32 µg/mL (≈ 60.8 µM) in experiment [4] (setting [10]).

For the origin of these results see US11180504B2 (ORCHID PHARMA LTD., priority 2016, dated 2021).
